Assay: Degradation of time-dependent coupling polymer components in simulated gastric fluid
Type: physicochemical
Conditions: seven days
Description: Additional preferred polymers for use as coupling polymers are time-dependent polymers, that is, polymers that degrade in a time-dependent manner in the gastric environment.

degradation / retention of strength in simulated gastric fluid: degrades in a time-dependent manner
SMILES: CC(=O)OCC(COC(C)=O)OC(C)=O [triacetin]

From patent US12109305B2, “Materials architecture for gastric residence systems” (Lyndra Therapeutics, Inc., priority 2016, dated 2024)
